Experimental data published in patent US8148387B2, “AKT and P70 S6 kinase inhibitors” (Eli Lilly and Company, priority 2008, dated 2012).
Values joined by “and” are separate entries in the source; they are usually repeats but may differ in a detail not shown here. Equal entries are not always repeated.

Tests used:
NCIH460 = experiment: Combination studies, fixed ratio method, cell proliferation, NCIH460; type: cell-based
Description: (§1) The combination studies use the fixed ratio method, where the compound of the present invention and the other therapeutic agent are present in fixed ratios of concentrations corresponding to the IC50 equivalents of single agents. The readout for the combination studies is cell proliferation in respective cell lines using Cell Titer Glo reagents. Controls are processed similarly but without the compound of the present invention or the other therapeutic agent. Analysis of the data is done according to the method described in Zhao et. al., Clinical Cancer Research, 10, 7994-8004 (2004) utilizing a web based tool. A combination index is calculated for a range of cell proliferation inhibition activity levels according to the equation below. Combination Index at activity level x=[Concentration of other therapeutic agent in the combination at the activity level x/ICx of the other therapeutic agent]+[Concentration of the compound of the present invention in the combination at the activity level x/ICx of the compound of the present invention] For clarity, Combination index values at 50% inhibition are summarized below.

HCT116 [1] = experiment: Cell Proliferation Assay (CellTiter-Glo), HCT116; type: cell-based; details: Homo sapiens, HCT-116; HCT116, 72 hr
Procedure: (§2) The proliferation assay uses the CellTiter-Glo Luminescent Cell Viability Assay System (commercially available from Promega) to determine the cell number of viable cells in culture based on quantitation of the ATP present, which signals the presence of metabolically active cells.
(§3) The cells are plated in 96-well plate at 2000 cells/well in volume of 50 μL medium (DMEM, 10% FBS, 25 mM HEPES, 1.0 mM Sodium Pyruvate, and 0.1 mM Non Essential Amino Acids) except column 1 with medium only as blank control. The plates are incubated overnight at 37° C. and 5% CO2. On the next day, compound stocks are prepared at 40 mM in DMSO (500×) and serially diluted in DMSO in a 96-well round bottom polypropylene plate. Compounds are assayed at 10 concentrations in duplicate, 4 compounds per plate.
(§4) 4 μL of the serial DMSO dilutions are transferred to a 96 deep-well plate and 1 mL complete culture medium is added to create 2× stock for dosing. 50 μL of each 2× dosing stock is gently transferred to the corresponding well of the cell plate resulting in a 0.2% DMSO concentration and a 100 μL final volume. […] medium are added to the Control columns (Column 12) and background columns (Column 1). Cells are incubated with compound for at 37° C., 5% CO2 for 72 hr. […]

A2780 [2] = experiment: Cell Proliferation Assay (CellTiter-Glo), A2780; type: cell-based; details: Homo sapiens; A2780, 72 hr
Procedure: as §2, §3, §4

H1155 [3] = experiment: Cell Proliferation Assay (CellTiter-Glo), H1155; type: cell-based; details: Homo sapiens, NCI-H1155; H1155, 72 hr
Procedure: as §2, §3, §4

H69 = experiment: Cell Proliferation Assay (CellTiter-Glo), H69; type: cell-based; details: Homo sapiens, NCI-H69; H69, 72 hr
Procedure: as §2, §3, §4

PC3 = experiment: Cell Proliferation Assay (CellTiter-Glo), PC3; type: cell-based; details: Homo sapiens, PC-3; PC3, 72 hr
Procedure: as §2, §3, §4

OPM-2 = experiment: Cell Proliferation Assay (CellTiter-Glo), OPM-2; type: cell-based; details: Homo sapiens; OPM-2, 72 hr
Procedure: as §2, §3, §4

Calu6 = experiment: Combination studies, fixed ratio method, cell proliferation, Calu6; type: cell-based
Description: as §1

BT474 = experiment: Cell Proliferation Assay (CellTiter-Glo), BT474; type: cell-based; details: Homo sapiens, BT-474; BT474, 72 hr
Procedure: as §2, §3, §4

786-0 = experiment: Combination studies, fixed ratio method, cell proliferation, 786-0; type: cell-based; details: combination with Rapamycin
Description: as §1

HCT116 [4] = experiment: Combination studies, fixed ratio method, cell proliferation, HCT116; type: cell-based
Description: as §1

A2780 [5] = experiment: Combination studies, fixed ratio method, cell proliferation, A2780; type: cell-based
Description: as §1

786-O = experiment: Cell Proliferation Assay (CellTiter-Glo), 786-O; type: cell-based; details: Homo sapiens, 786-0, 72 hr
Procedure: as §2, §3, §4

ACHN = experiment: Combination studies, fixed ratio method, cell proliferation, ACHN; type: cell-based; details: combination with Rapamycin
Description: as §1

69AR = experiment: Cell Proliferation Assay (CellTiter-Glo), 69AR; type: cell-based; details: 72 hr
Procedure: as §2, §3, §4

U87MG = experiment: Cell Proliferation Assay (CellTiter-Glo), U87MG; type: cell-based; details: Homo sapiens, U-87 MG, 72 hr
Procedure: as §2, §3, §4

CAKI-1 = experiment: Combination studies, fixed ratio method, cell proliferation, CAKI-1; type: cell-based; details: combination with Rapamycin
Description: as §1

H1155 [6] = experiment: Combination studies, fixed ratio method, cell proliferation, H1155; type: cell-based
Description: as §1

human HERG K+ channel = molecular target: T1, human HERG K+ channel (Homo sapiens, UniProt Q12809); experiment: HERG Assay, [3H]astemizole radioligand binding; details: transfected HEK-293 cell membranes, 2 nM [3H]astemizole
T1 construct: expressed in transfected cells; host or cells: HEK-293
Procedure: Evaluation of the affinity of compounds for the human HERG K^+ channel in transfected HEK-293 cells is determined in a radioligand binding assay. Cell membrane homogenates (40 μg protein) are incubated for 75 min at 22° C. with 2 nM [^3H]astemizole in the absence or presence of the test compound in a buffer containing 50 mM Tris-HCl (pH 7.4), 10 mM KCl, 1.2 mM MgCl2 and 0.1% Bovine serum albumin (BSA). Nonspecific binding is determined in the presence of 10 μM astemizole. Following incubation, the samples are filtered rapidly under vacuum through glass fiber filters (GF/B, Packard) presoaked with 0.3% PEI and rinsed several times with ice-cold 50 mM Tris-HCl using a 96-sample cell harvester (Unifilter, Packard). The filters are dried then counted for radioactivity in a scintillation counter (Topcount, Packard) using a scintillation cocktail (Microscint 0, Packard). The results are expressed as a percent inhibition of the control radioligand specific binding. The standard reference compound is astemizole, which is tested in each experiment at several concentrations to obtain a competition curve from which its IC50 is calculated. (Finalayson et al, [^3H]dofetilide binding in SHSYSY and HEK293 cells expressing a HERG-like K^+ channels, Eur. J. Pharmacol., 412: 203 (2001)).

T1 sequence (Q12809 whole entry): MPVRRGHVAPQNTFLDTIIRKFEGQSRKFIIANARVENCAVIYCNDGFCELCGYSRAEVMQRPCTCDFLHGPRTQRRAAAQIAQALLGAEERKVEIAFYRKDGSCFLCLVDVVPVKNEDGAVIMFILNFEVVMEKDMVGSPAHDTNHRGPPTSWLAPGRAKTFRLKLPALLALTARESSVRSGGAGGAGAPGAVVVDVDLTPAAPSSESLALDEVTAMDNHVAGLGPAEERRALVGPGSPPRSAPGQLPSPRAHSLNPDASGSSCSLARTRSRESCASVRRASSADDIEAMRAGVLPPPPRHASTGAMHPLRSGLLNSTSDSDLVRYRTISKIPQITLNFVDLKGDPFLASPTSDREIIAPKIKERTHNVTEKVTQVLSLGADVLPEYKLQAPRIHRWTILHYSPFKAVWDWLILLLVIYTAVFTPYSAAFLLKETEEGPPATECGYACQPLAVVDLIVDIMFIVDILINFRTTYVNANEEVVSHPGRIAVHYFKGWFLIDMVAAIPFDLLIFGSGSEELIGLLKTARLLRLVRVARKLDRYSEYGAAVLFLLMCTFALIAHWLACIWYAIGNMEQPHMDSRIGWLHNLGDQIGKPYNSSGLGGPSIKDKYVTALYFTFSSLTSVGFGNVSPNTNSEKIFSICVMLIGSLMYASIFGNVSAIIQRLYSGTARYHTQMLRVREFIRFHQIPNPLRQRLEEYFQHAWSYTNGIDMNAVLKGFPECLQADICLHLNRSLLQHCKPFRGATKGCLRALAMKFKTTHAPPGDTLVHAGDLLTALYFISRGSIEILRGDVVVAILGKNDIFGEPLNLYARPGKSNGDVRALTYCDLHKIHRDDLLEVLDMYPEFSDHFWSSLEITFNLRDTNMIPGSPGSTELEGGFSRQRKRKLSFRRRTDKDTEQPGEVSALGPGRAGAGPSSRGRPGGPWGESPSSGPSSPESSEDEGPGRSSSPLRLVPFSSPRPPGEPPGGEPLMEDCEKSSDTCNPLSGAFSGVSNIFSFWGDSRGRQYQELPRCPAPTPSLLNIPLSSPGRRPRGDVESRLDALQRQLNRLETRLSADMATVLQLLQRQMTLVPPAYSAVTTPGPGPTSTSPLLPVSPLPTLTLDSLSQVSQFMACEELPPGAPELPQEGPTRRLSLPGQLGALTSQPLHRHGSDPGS

SMILES: CN(C)CCn1cc(-c2ccc(F)c(C(F)(F)F)c2)nc1C1CCN(c2ncnc3c2CC(=O)N3)CC1 [Example 45, 4-{4-[1-(2-Dimethylamino-ethyl)-4-(4-fluoro-3-trifluoromethyl-phenyl)-1H-imidazol-2-yl]piperidin-1-yl}-5,7-dihydro-pyrrolo[2,3-d]-pyrimidin-6-one]
- COMBINATION INDEX AT 50% INHIBITION (NCIH460; combination with Cisplatin): 0.56
- COMBINATION INDEX AT 50% INHIBITION (NCIH460; combination with Docetaxel): 0.67
- COMBINATION INDEX AT 50% INHIBITION (NCIH460; combination with Erlotinib): 0.38
- COMBINATION INDEX AT 50% INHIBITION (NCIH460; combination with Gemcitabine): 0.86
- COMBINATION INDEX AT 50% INHIBITION (NCIH460; combination with Pemetrexed): 0.97
- IC50 (HCT116 [1]): 7.5 µM
- IC50 (A2780 [2]): 5.9 µM
- IC50 (H1155 [3]): 4.9 µM
- IC50 (H69): 6.3 µM
- IC50 (PC3): 6.2 µM
- IC50 (OPM-2): 2.3 µM
- COMBINATION INDEX AT 50% INHIBITION (Calu6; combination with Cisplatin): 0.57
- COMBINATION INDEX AT 50% INHIBITION (Calu6; combination with Docetaxel): 0.94
- COMBINATION INDEX AT 50% INHIBITION (Calu6; combination with Erlotinib): 0.10
- COMBINATION INDEX AT 50% INHIBITION (Calu6; combination with Gemcitabine): 1.13
- COMBINATION INDEX AT 50% INHIBITION (Calu6; combination with Tasisulam): 1.19
- IC50 (BT474): 7.9 µM
- COMBINATION INDEX AT 50% INHIBITION (786-0): 0.41
- COMBINATION INDEX AT 50% INHIBITION (HCT116 [4]; combination with Cetuximab): 2.02
- COMBINATION INDEX AT 50% INHIBITION (HCT116 [4]; combination with Irinotecan): 0.82
- COMBINATION INDEX AT 50% INHIBITION (A2780 [5]; combination with Cisplatin): 1.04 and 0.64
- COMBINATION INDEX AT 50% INHIBITION (A2780 [5]; combination with Doxorubicin•HCl): 0.65 and 0.96
- IC50 (786-O): 3.4 µM
- COMBINATION INDEX AT 50% INHIBITION (ACHN): 0.12
- IC50 (69AR): 9.4 µM
- IC50 (U87MG): > 10 µM
- COMBINATION INDEX AT 50% INHIBITION (CAKI-1): 0.33
- COMBINATION INDEX AT 50% INHIBITION (H1155 [6]; combination with Cisplatin): 0.58
- COMBINATION INDEX AT 50% INHIBITION (H1155 [6]; combination with Erlotinib): 0.43
- COMBINATION INDEX AT 50% INHIBITION (H1155 [6]; combination with Gemcitabine): 0.87

SMILES: O=C1Cc2c(ncnc2N2CCC(c3nc(-c4ccc(F)c(F)c4)cn3CCN3CCCC3)CC2)N1 [Example 37, 4-{4-[4-(3,4-Difluoro-phenyl)-1-(2-pyrrolidin-1-yl-ethyl)-1H-imidazol-2-yl]-piperidin-1-yl}-5,7-dihydro-pyrrolo[2,3-d]pyrimidin-6-one]
- IC50 (human HERG K+ channel): 13.9 µM
